In series [1] the target is T1, LasB S241G (Pseudomonas aeruginosa, UniProt P14756, S241G).
T1 construct: endogenous in cells; host or cells: P. aeruginosa clinical CF isolate, culture supernatant
In words: LasB variant inhibition, culture supernatant: S241G. The series is classed as biochemical, P. aeruginosa. From the text: (§1) Compounds 12 and 16 were discovered as a result of optimizing potency against the LasB protein expressed from the wild-type (WT) reference strain P. aeruginosa PAO1. To understand the relative prevalence of the WT LasB protein versus other variants in clinical respiratory P. aeruginosa strains, the full-length lasB gene was amplified by PCR from 255 clinical isolates (obtained from CF sputum samples). […] Most changes were identified in the mature peptide, however some occurred in the propeptide domain, which could affect LasB processing (marked in italics in Table 4).
(§2) LasB inhibition assays were performed using purified LasB enzyme (1 ng/well) for compound screening or using culture supernatants (prepared as described in the ECR assay) for testing LasB variants. Hydrolysis of the fluorogenic peptide substrate 2-aminobenzoyl-Ala-Gly-Leu-Ala-4-nitrobenzylamide (Abz-AGLA-Nba; Peptide International) in 50 mM Tris-HCl (pH 7.4), supplemented with 2.5 mM CaCl2 was followed using an Envision microplate reader (PerkinElmer) at 315 nm excitation and 430 nm emission. […] IC50 values were determined from Hill plots using Dotmatics Studies ELN software. For the mechanism of inhibition studies, hydrolysis rates were measured in the presence of variable concentrations of substrate and inhibitor, and the inhibition constant (Ki) was determined using Dixon plot analysis.[31]

Series [2] in a line: Cytotoxicity screening (MTS), BSMC. The series is classed as cell-based. Particulars: human, bronchial smooth muscle cells (BSMC). How it is done: Bronchial smooth muscle cells (BSMC, Lonza CC-2576), small airway epithelial cells (SAEC, Lonza CC-2547), or HepG2 cells (ATCC HB-8065) were seeded in 96-well plates at a density of 25,000 per well. Culture of these cells throughout the protocol utilized incubation at 37 °C, 5% CO2 in a humidified atmosphere, with BSMC and SAEC cells cultured in cell-specific media (Lonza) and HepG2 cells cultured in RPMI 1640 medium containing Glutamax (Gibco) and 10% fetal bovine serum. Plates containing BSMC cells were collagen coated to assist with cell adhesion. Following an overnight settling period, media was replaced with fresh media, with, or without, compound. Compound concentrations tested were 1, 3, 10, 30, and 100 μM, in duplicate. The cells were incubated with compound for 24 h. Control (1% DMSO) and positive standards terfenadine- and salmeterol-treated groups were included for both cell lines. […] The reaction was stopped with 12.5 μL of 10% SDS, plates briefly shaken, and absorbance (490 nm) read using a Spectramax M5e plate reader (Molecular Devices). Percentages of viable cells were calculated as: (test sample Abs 490 nM-mean blank Abs 490 nm)/(mean control Abs 490 nM-mean blank Abs 490 nm) × 100.

The target of series [3] is T2, LasB Q71L (Pseudomonas aeruginosa, UniProt P14756).
T2 construct: endogenous in cells; host or cells: P. aeruginosa clinical CF isolate, culture supernatant
In words: LasB variant inhibition, culture supernatant: Q71L. It is filed as biochemical, P. aeruginosa.
Source text: as §1, §2

In series [4] the target is T3, LasB N68S, T120I, A122T, S241G, S436L (Pseudomonas aeruginosa, UniProt P14756, S241G/S436L).
T3 construct: Most changes were identified in the mature peptide, however some occurred in the propeptide domain; endogenous in cells; host or cells: P. aeruginosa clinical CF isolate, culture supernatant
The series is described as follows: LasB variant inhibition, culture supernatant: N68S, T120I, A122T, S241G, S436L. The series is classed as biochemical, P. aeruginosa.
Source text: as §1, §2

In series [5] the target is T4, LasB S460T (Pseudomonas aeruginosa, UniProt P14756, S460T).
T4 construct: Most changes were identified in the mature peptide, however some occurred in the propeptide domain; endogenous in cells; host or cells: P. aeruginosa clinical CF isolate, culture supernatant
The series is described as follows: LasB variant inhibition, culture supernatant: S460T. The series is classed as biochemical, P. aeruginosa.
Source text: as §1, §2

Series [6] deals with T5, LasB Q102R, S241G, D244N, K282N, R471S (Pseudomonas aeruginosa, UniProt P14756, D244N/K282N/R471S/S241G).
T5 construct: Most changes were identified in the mature peptide, however some occurred in the propeptide domain; endogenous in cells; host or cells: P. aeruginosa clinical CF isolate, culture supernatant
The series is described as follows: LasB variant inhibition, culture supernatant: five substitutions. It is filed as biochemical, P. aeruginosa.
Source text: as §1, §2

Series [7] has as its target T6, LasB (P. aeruginosa PAO1 culture supernatant) (Pseudomonas aeruginosa, UniProt P14756).
T6 construct: The mature LasB protein is a 33 kDa metalloprotease, which is secreted from P. aeruginosa; endogenous in cells; host or cells: P. aeruginosa PAO1 culture supernatant, filtered and dialyzed
The series is described as follows: Elastin Congo Red (ECR) assay, elastin hydrolysis by dialyzed PAO1 culture supernatant. The series is classed as biochemical. Particulars: 25 μM inhibitor. From the text: This was chosen as the starting point for a medicinal chemistry-driven lead optimization program aiming to improve potency and solubility whilst retaining selectivity against host metalloenzymes. All synthesized compounds were initially assessed in a fluorimetric assay measuring hydrolysis of a fluorogenic substrate Abz-Ala-Gly-Leu-Ala-4-nitrobenzylamide (Abz-AGLA-Nba) by purified LasB and IC50 values determined (Tables 1 and 2). Inhibition of elastin hydrolytic activity was confirmed using an orthogonal assay measuring hydrolysis of Elastin Congo Red (ECR) complex by LasB prepared directly from a P. aeruginosa culture supernatant (Tables 1 and 2). […] Aqueous solubility was determined for most compounds (Tables 1 and 2).
Inhibition of elastin hydrolysis by native LasB, secreted in P. aeruginosa culture supernatants, was measured using the Elastin Congo Red (ECR) assay. Culture supernatants from P. aeruginosa strain PAO1, grown in LB medium at 37 °C for 24 h, were filtered and dialyzed against 50 mM Tris-HCl pH 7.4, 2.5 mM CaCl2 solution at 4 °C and supplemented with 0.01%Triton X-100, 10 mg/mL ECR (Sigma) and 25 μM inhibitor compounds. The reaction mixture was incubated for 16 h at 37 °C with shaking before centrifugation and recovery of the supernatant and measurement of solubilized congo red by absorbance (OD495) using an EnSight multimode plate reader (PerkinElmer).

T5 sequence (P14756 198-498, looked up, stated change not applied): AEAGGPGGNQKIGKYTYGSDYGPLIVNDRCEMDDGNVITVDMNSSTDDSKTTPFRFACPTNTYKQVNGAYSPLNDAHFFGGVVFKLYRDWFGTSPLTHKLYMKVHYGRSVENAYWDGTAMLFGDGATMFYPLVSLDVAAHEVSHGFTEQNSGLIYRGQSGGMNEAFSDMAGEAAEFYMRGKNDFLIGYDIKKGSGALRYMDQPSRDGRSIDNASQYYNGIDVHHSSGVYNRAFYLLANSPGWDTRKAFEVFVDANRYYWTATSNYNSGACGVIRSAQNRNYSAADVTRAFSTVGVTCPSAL
T3 sequence (P14756 198-498, looked up, stated change not applied): as above
T6 sequence (P14756 198-498): as the sequence (P14756 198-498, looked up, stated change not applied) above
T2 sequence (P14756 198-498, stated change not applied): as the sequence (P14756 198-498, looked up, stated change not applied) above
T1 sequence (P14756 198-498 S241G): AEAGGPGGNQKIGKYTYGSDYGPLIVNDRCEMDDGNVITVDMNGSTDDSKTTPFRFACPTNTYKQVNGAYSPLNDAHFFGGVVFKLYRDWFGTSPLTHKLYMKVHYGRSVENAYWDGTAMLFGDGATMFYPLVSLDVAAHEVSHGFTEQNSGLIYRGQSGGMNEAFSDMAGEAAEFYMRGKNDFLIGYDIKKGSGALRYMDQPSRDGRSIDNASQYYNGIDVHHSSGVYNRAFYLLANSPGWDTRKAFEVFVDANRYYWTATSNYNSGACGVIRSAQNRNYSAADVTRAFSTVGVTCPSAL
T4 sequence (P14756 198-498 S460T): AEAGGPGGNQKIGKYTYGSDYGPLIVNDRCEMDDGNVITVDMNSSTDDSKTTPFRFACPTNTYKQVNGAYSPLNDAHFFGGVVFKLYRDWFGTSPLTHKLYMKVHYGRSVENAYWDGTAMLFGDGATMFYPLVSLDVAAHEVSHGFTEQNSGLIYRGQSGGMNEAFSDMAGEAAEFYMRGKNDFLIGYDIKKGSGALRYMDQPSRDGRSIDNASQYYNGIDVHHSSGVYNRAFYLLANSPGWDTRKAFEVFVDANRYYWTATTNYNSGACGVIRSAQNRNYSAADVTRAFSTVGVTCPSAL

Consider `COc1cc2sc(CNC(=O)C3(CC(=O)O)Cc4ccccc4C3)nc2cc1OCCC[N+](C)(C)C` [Compound 12], for which the IC50 in series [1] came out at 0.221 µM; in series [3], 0.214 µM; in series [4], 0.267 µM; in series [5], 0.211 µM; in series [6], 0.183 µM. The concentration for half-maximal inhibition (IC50) at 24 h in series [2] is above 100 µM. Also, the “Elastin hydrolysis @ 25 μM (% inh)” value in series [7] is given as 64 % inh.

Regarding `COc1cc2sc(CNC(=O)C3(CC(=O)O)Cc4cc(F)c(F)cc4C3)nc2cc1OCCC[N+](C)(CCO)CCO` [Compound 16], the IC50 in series [1] came out at 0.206 µM; in series [3], 0.177 µM; in series [4] it was 0.253 µM; in series [5], 0.201 µM; in series [6] it was 0.178 µM. The compound further registered a concentration for half-maximal inhibition (IC50) at 24 h in series [2] above 100 µM. The “Elastin hydrolysis @ 25 μM (% inh)” value in series [7] was 73 % inh.

What is called IC50 is the concentration needed to halve the response being measured. Higher therefore signals weaker potency.

For the origin of these results see PMC9926489, “Chemical Optimization of Selective Pseudomonas aeruginosa LasB Elastase Inhibitors and Their Impact on LasB-Mediated Activation of IL-1β in Cellular and Animal Infection Models” (ACS Infectious Diseases, 2023).
